Legend:
[1] = Apparent permeability of the compound across apical to basolateral side in human Caco-2 cells; type: ADME, cell-based
[2] = Tmax in C57BL/6 mouse at 20 mg/kg, po measured up to 24 hrs by LC-MS/MS analysis; type: ADME, organism-based; settings: in vivo
[3] = Tmax in C57BL/6 mouse at 10 mg/kg, ip measured up to 24 hrs by LC-MS/MS analysis; type: ADME, organism-based; settings: in vivo
[4] = Stability of the compound in DMEM media with 10% fetal bovine serum assessed as hydrolysis of prodrug at 25 uM measured for 5 mins by RP-HPLC analysis; type: ADME, cell-free; settings: cattle

Papp A→B [1] [×10⁻⁶ cm/s] | Tmax [2] [h] | Tmax [3] [h] | t1/2 [4] [h] | SMILES
< 0.11 | 2 | 0.25 | – | Cl.NCCCOc1cc2ccccc2cc1C(=O)NCCOc1cc2ccccc2cc1C(=O)Nc1ccc(Cl)cc1O
– | 2 | 1 | – | NCCCOc1cc2ccccc2cc1C(=O)NCCOc1cc2ccccc2cc1C(=O)Nc1ccc(Cl)cc1OP(=O)(O)O.O=C(O)C(F)(F)F
– | – | – | 2.61 | NCCCOc1cc2ccccc2cc1C(=O)NCCOc1cc2ccccc2cc1C(=O)Nc1ccc(Cl)cc1OCOP(=O)(O)O.O=C(O)C(F)(F)F
